Assay results reported in patent EP0289262A2, “Omega-quaternary ammonium alkyl esters and thioesters of acidic nonsteroidal antiinflammatory drugs” (priority 1987, dated 1988).
“And” between values parts separate entries of the source, which are not always exact repeats. Equal values may be shown once.

What was measured:
Intestinal Tract of Rats = experiment: Test for ability to cause gastro-intestinal erosion in rats; format: in vivo, Male Lai: COX (SD) rats
Protocol: Male Lai: COX (SD) rats weighing 200-250 gm were acclimated for one week under standard laboratory conditions. Each animal was individually indentified and body weights were determined on the first day of the test and again at autopsy. The test materials, suspended in aqueous carboxymethyl cellulose vehicle, were administered orally once daily in a volume of 1.0ml per 100g body weight for four consecutive days. Food was withdrawn from the animals following the last dose and the animals were sacrificed 24 hours later. At necropsy, the stomach and intestines were removed and observed for lesions. […] The incidence of lesions for each dose level tested is reported.

[1] = system: Adjuvant-Induced Arthritis in the Rat; experiment: Rat adjuvant-induced arthritis assay; format: in vivo, Female Crl:CD, br rats; conditions: oral
Protocol: Female Crl:CD, br rats weighting 160-180 gm were randomly distributed to treatment groups of 12 animals, and were given food and water ad libitum. Test materials were prepared fresh weekly as suspensions in aqueous carboxymethyl cellulose. Animals were orally dosed with volumes of 1 ml twice per day Monday through Friday, and with 2 ml once per day on Saturdays and Sundays. At time 0, rats were injected intradermally in the proximal quarter of the tail with 0.1 ml of a mineral oil suspension of heat killed and dried Mycobacterium butyricum (Difco) at a concentration of 10 mg/ml. After sacrifice, the hind paws of each animal were removed and weighed.

[2] = 21-day oral toxicity observation in rats; format: in vivo, male Hsd:(SD)BR rats; conditions: orally twice daily for 21 consecutive days, total daily dose 100 mg/Kg
Protocol: Five male Hsd:(SD)BR rats weighing 205-215 g were acclimated for approximately one week prior to use under standard laboratory conditions. Naproxen thiocholine ester iodide, suspended in aqueous carboxymethylcellulose vehicle was administered orally twice daily in a volume of 1.0 ml per 200 g body weight for 21 consecutive days at a total daily dose of 100 mg/Kg.

[3] = system: Intestinal Ulceration in Rats Induced by the Subcutaneous Administration of Indomethacin; experiment: Protective effect against intestinal ulceration induced by subcutaneous indomethacin; format: in vivo, Male Crl:D,br rats; conditions: indomethacin 4 mg/kg/day s.c. for four days, score 0-10, vehicle 5.8 ± 1.8
Protocol: Male Crl:D,br rats weighing approximately 200 gm received indomethacin, 4 mg/kg, injected subcutaneously each day for four consecutive days to induce the formation of erosions and ulcers of the small intestine. Food was removed following the last dose of indomethacin and the rats were necropsied 18-24 hours later. Erosions of small intestine were scored as follows: 0 - no detectable lesions 2 - small ulcerattions (1-15) less than 1 mm 4 - small ulcerations plus 1-10 medium (2-3 mm) ulcerations 6 - predominantly medium ulceratiaons plus 2-5 severe (>4mm) ulcers without evidence of perforation 8 - many (>20) medium and severe ulcerations with evidence of perforation 10 - animals dying during assay as a consequence of intestinal perforation and septicemia.
Agents to be tested for protective effects were administered orally in an aqueous vehicle, with one-half the daily dose being administered 4 hours prior to indomethacin injection and one half the daily dose being administered at the time of indomethacin injection.

[4] = daily dose 5 mg/kg orally, four consecutive days, erosions graded 0-10, five rats
[5] = daily dose 25 mg/kg orally, four consecutive days, erosions graded 0-10, five rats
[6] = daily dose 200 mg/kg orally, four consecutive days, erosions graded 0-10, five rats
[7] = daily dose 300 mg/kg orally, four consecutive days, erosions graded 0-10, five rats, 300 mg/kg
[8] = daily dose 400 mg/kg orally, four consecutive days, erosions graded 0-10, five rats, 400 mg/kg

## O=C(c1ccccc1)c1ccc2n1CCC2C(=O)O (centres unmarked) [Ketorolac, ketorolac, reference compound]
Intestinal Tract of Rats; [4]
  Mean Intestinal Ulcer Score ± 1Std. Dev.: 1.9 ± 0.9
Intestinal Tract of Rats; rat, in vivo, po, 10 mg/kg
  Mean Intestinal Ulcer Score ± 1Std. Dev.: 4.8 ± 1.7
Intestinal Tract of Rats; rat, in vivo, po, 20 mg/kg
  Mean Intestinal Ulcer Score ± 1Std. Dev.: 7.4 ± 1.7
[1]; daily dose 0.1 mg/kg
  Percent Inhibition of Hind Paw Weight: 5%
[1]; daily dose 0.5 mg/kg
  Percent Inhibition of Hind Paw Weight: 14%
[1]; daily dose 2.5 mg/kg
  Percent Inhibition of Hind Paw Weight: 59%

## COc1ccc2c(c1)c(CC(=O)SCC[N+](C)(C)C)c(C)n2C(=O)c1ccc(Cl)cc1 [Indomethacin thiocholine ester iodide, indomethacin thiocholine ester iodide]
Intestinal Tract of Rats; [5]
  Mean Intestinal Ulcer Score ± 1Std. Dev.: 0
Intestinal Tract of Rats; daily dose 100 mg/kg orally, four consecutive days, erosions graded 0-10, five rats
  Mean Intestinal Ulcer Score ± 1Std. Dev.: 0
[1]; daily dose 7.0 mg/kg
  Percent Inhibition of Hind Paw Weight: 15%
[1]; daily dose 14 mg/kg
  Percent Inhibition of Hind Paw Weight: 59%

## COc1ccc2c(c1)c(CC(=O)O)c(C)n2C(=O)c1ccc(Cl)cc1 [Indomethacin, indomethacin, reference compound]
Intestinal Tract of Rats; [4]
  Mean Intestinal Ulcer Score ± 1Std. Dev.: 7.2 ± 1.9
[1]; daily dose 2.0 mg/kg
  Percent Inhibition of Hind Paw Weight: 75%

## COc1ccc2cc([C@H](C)C(=O)SCC[N+](C)(C)C)ccc2c1 [Naproxen thiocholine ester iodide, NAPROXEN THIOCHOLINE ESTER IODIDE]
Intestinal Tract of Rats; daily dose 150 mg/kg orally, four consecutive days, erosions graded 0-10, five rats
  Mean Intestinal Ulcer Score ± 1Std. Dev.: 0
Intestinal Tract of Rats; [6]
  Mean Intestinal Ulcer Score ± 1Std. Dev.: 0.4 ± 0.9
Intestinal Tract of Rats; daily dose 250 mg/kg orally, four consecutive days, erosions graded 0-10, five rats
  Mean Intestinal Ulcer Score ± 1Std. Dev.: 1.6 ± 1.7
Intestinal Tract of Rats; [7]
  Mean Intestinal Ulcer Score ± 1Std. Dev.: 3.0 ± 1.7
Intestinal Tract of Rats; [8]
  Mean Intestinal Ulcer Score ± 1Std. Dev.: 7.2 ± 1.1
[1]; daily dose 7.0 mg/kg
  Percent Inhibition of Hind Paw Weight: 40%
[1]; daily dose 10 mg/kg
  Percent Inhibition of Hind Paw Weight: 69%
[1]; daily dose 14 mg/kg, 14 mg/kg
  Percent Inhibition of Hind Paw Weight: 40% and 53%
[1]; daily dose 28 mg/kg, 28 mg/kg
  Percent Inhibition of Hind Paw Weight: 51% and 75%
[2]
  gross signs of toxicity: did not produce any gross signs of toxicity
[3]; oral dose 5 mg/kg/day
  Intestinal Erosion Score Mean ± S.D.: 4.0 ± 2.4
[3]; oral dose 10 mg/kg/day
  Intestinal Erosion Score Mean ± S.D.: 2.4 ± 0.9
[3]; oral dose 20 mg/kg/day
  Intestinal Erosion Score Mean ± S.D.: 1.8 ± 2.4
[3]; oral dose 50 mg/kg/day
  Intestinal Erosion Score Mean ± S.D.: 0.8 ± 1.1

## C[N+](C)(C)CCSC(=O)C1CCn2c(C(=O)c3ccccc3)ccc21 (centres unmarked) [Ketorolac thiocholine ester iodide, ketorolac thiocholine ester iodide]
Intestinal Tract of Rats; [5]
  Mean Intestinal Ulcer Score ± 1Std. Dev.: 2.0 ± 2.0
Intestinal Tract of Rats; daily dose 50 mg/kg orally, four consecutive days, erosions graded 0-10, five rats
  Mean Intestinal Ulcer Score ± 1Std. Dev.: 6.4 ± 0.9
Intestinal Tract of Rats; daily dose 75 mg/kg orally, four consecutive days, erosions graded 0-10, five rats
  Mean Intestinal Ulcer Score ± 1Std. Dev.: 7.2 ± 1.1
[1]; daily dose 1.0 mg/kg
  Percent Inhibition of Hind Paw Weight: 10%
[1]; daily dose 5.0 mg/kg, 5 mg/kg
  Percent Inhibition of Hind Paw Weight: 79% and 56%

## COc1ccc2cc([C@H](C)C(=O)SCC[N+](C)(C)C)ccc2c1 [Naproxen thiocholine ester chloride, naproxen thiocholine ester chloride]
Intestinal Tract of Rats; [6]
  Mean Intestinal Ulcer Score ± 1Std. Dev.: 0.4 ± 0.9
Intestinal Tract of Rats; [7]
  Mean Intestinal Ulcer Score ± 1Std. Dev.: 1.6 ± 0.9
Intestinal Tract of Rats; [8]
  Mean Intestinal Ulcer Score ± 1Std. Dev.: 5.6 ± 2.2

## COc1ccc2cc([C@H](C)C(=O)O)ccc2c1 [Naproxen, 2-(6′-methoxy-2′-naphthyl)propionic acid, reference compound]
Intestinal Tract of Rats; daily dose 20 mg/kg orally, four consecutive days, erosions graded 0-10, five rats
  Mean Intestinal Ulcer Score ± 1Std. Dev.: 1.6 ± 0.9
Intestinal Tract of Rats; [5]
  Mean Intestinal Ulcer Score ± 1Std. Dev.: 3.2 ± 1.1
Intestinal Tract of Rats; daily dose 30 mg/kg orally, four consecutive days, erosions graded 0-10, five rats
  Mean Intestinal Ulcer Score ± 1Std. Dev.: 6.4 ± 1.7
Intestinal Tract of Rats; daily dose 35 mg/kg orally, four consecutive days, erosions graded 0-10, five rats
  Mean Intestinal Ulcer Score ± 1Std. Dev.: 7.6 ± 0.9
[1]; daily dose 1.4 mg/kg
  Percent Inhibition of Hind Paw Weight: 22%
[1]; daily dose 3.5 mg/kg
  Percent Inhibition of Hind Paw Weight: 70%
[1]; daily dose 7.0 mg/kg
  Percent Inhibition of Hind Paw Weight: 77%
